From patent US5972898A, “3',3-N-bis-substituted macrolide LHRH antagonists” (Abbott Laboratories, priority 1998, dated 1999)

What follows are molecules tested against T1, LHRH rat pituitary receptor (Rattus norvegicus, UniProt P30969) (assay: LHRH rat pituitary receptor binding (pKI)). Settings: in vitro.
T1 construct: from tissue; host or cells: rat pituitary
T1 sequence (P30969 1-327): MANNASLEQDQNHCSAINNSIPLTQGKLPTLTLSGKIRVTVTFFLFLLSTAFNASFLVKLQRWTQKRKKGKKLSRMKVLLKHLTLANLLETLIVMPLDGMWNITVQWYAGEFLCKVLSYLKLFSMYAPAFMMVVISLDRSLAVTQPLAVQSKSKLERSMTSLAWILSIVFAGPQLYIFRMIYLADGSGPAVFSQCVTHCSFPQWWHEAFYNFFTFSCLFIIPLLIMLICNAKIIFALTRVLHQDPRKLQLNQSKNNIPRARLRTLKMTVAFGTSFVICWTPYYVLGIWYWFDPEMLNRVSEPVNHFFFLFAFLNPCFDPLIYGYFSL
Method: Representative compounds of the present invention were evaluated in in vitro tests for LHRH rat pituitary receptor binding (pKI) and for LH inhibition from rat pituitary cells for antagonist potency (pA2). […] The receptor binding affinity (pKI) is the negative equilibrium dissociation constants.

Molecule	pKI (receptor binding affinity)
3',3'-N-Bisdesmethyl-3'-N-cyclopropylmethyl-3'-N-(4hydroxymethyl-2-furyl)methyl-11-deoxy-11-[carboxy-(3-chloro-4-fluorophenethylamino)]-6-O-methyl-erythromycin A 11,12-(cyclic carbamate) [Example 23]	8.98
CC[C@H]1OC(=O)[C@H](C)[C@@H](O[C@H]2C[C@@](C)(OC)[C@@H](O)[C@H](C)O2)[C@H](C)[C@@H](O[C@@H]2O[C@H](C)C[C@H](N(CC3CC3)C3CCC3)[C@H]2O)[C@](C)(OC)C[C@@H](C)C(=O)[C@H](C)[C@H]2N(CCc3ccc(F)c(Cl)c3)C(=O)O[C@]12C [Example 19, 3',3'-N-Bisdesmethyl-3'-N-cyclobutyl-3'-N-cyclopropylmethyl-11-deoxy-11-[carboxy-(3-chloro-4-fluorophenethylamino)]-6-O-methyl-erythromycin A 11,12-(cyclic carbamate)]	9.08
3',3'-N-Bisdesmethyl-3'-N-cyclopentyl-3'-N-cyclopropylmethyl-11-deoxy-11-[carboxy-(3-chloro-4-fluorophenethylamino)]-6-O-methyl-erythromycin A 11,12-(cyclic carbamate) [Example 16]	8.87
3',3'-N-Bisdesmethyl-3'-N-cyclopropylmethyl-3'-N-(6-methyl-2-pyridyl)methyl-11-deoxy-11-[carboxy-(3-chloro-4-fluorophenethylamino)]-6-O-methyl-erythromycin A 11,12-(cyclic carbamate) [Example 25]	8.58
3',3'-N-Bisdesmethyl-3'-N-cyclopropylmethyl-3'-N-(2-furyl)methyl-11-deoxy-11-[carboxy-(3-chloro-4-fluorophenethylamino)]-6-O-methyl-erythromycin A 11,12-(cyclic carbamate) [Example 24]	8.00

The remaining lines, values ahead:

pKI (receptor binding affinity)	Molecule
8.56	CC[C@H]1OC(=O)[C@H](C)[C@@H](O[C@H]2C[C@@](C)(OC)[C@@H](O)[C@H](C)O2)[C@H](C)[C@@H](O[C@@H]2O[C@H](C)C[C@H](N(CC3CC3)C(C)C)[C@H]2O)[C@](C)(OC)C[C@@H](C)C(=O)[C@H](C)[C@H]2N(CCc3ccc(Cl)cc3)C(=O)O[C@]12C [Example 7, 3',3'-N-Bisdesmethyl-3'-N-cyclopropylmethyl-3'-N-isopropyl-11-deoxy-11-carboxy-(4-chlorophenethylamino)]-6-O-methyl-erythromycin A 11,12-(cyclic carbamate)]
8.34	3',3 -N-Bisdesmethyl-3'-N-cyclopropylmethyl-3'-N-4-hydroxymethyl-(2-furylmethyl-11-Deoxy-11-[carboxy-(3,4-dichlorophenethylamino)]-6-O-methyl-erythromycinA 11,12-(cyclic carbamate) [Example 21]

Same assay, conditions: in vitro, read-out: pKI (receptor binding affinity) (converted)

Molecule	Ki [nM]
CC[C@H]1OC(=O)[C@H](C)[C@@H](O[C@H]2C[C@@](C)(OC)[C@@H](O)[C@H](C)O2)[C@H](C)[C@@H](O[C@@H]2O[C@H](C)C[C@H](N(CC3CC3)CC3CC3)[C@H]2O)[C@](C)(OC)C[C@@H](C)C(=O)[C@H](C)[C@H]2N(CCc3ccc(OC)cc3)C(=O)O[C@]12C [Example 10, 3',3'-N-Bisdesmethyl-3',3'-N-biscyclopropylmethyl-11-deoxy-11-[carboxy-(4-methoxyphenethylamino)]-6-O-methyl-erythromycin A 11,12-(cyclic carbamate)]	1.41
CC[C@H]1OC(=O)[C@H](C)[C@@H](O[C@H]2C[C@@](C)(OC)[C@@H](O)[C@H](C)O2)[C@H](C)[C@@H](O[C@@H]2O[C@H](C)C[C@H](N(C3CCC3)C3CCC3)[C@H]2O)[C@](C)(OC)C[C@@H](C)C(=O)[C@H](C)[C@H]2N(CCc3ccc(Cl)c(F)c3)C(=O)O[C@]12C [Example 12, 3',3'-N-Bisdesmethyl-3',3'-N-biscyclobutyl-11-deoxy-11-[carboxy-(4-chloro-3-fluorophenethylamino)]-O-methl-erythromycin A 11,12-(cyclic carbamate)]	1
CC[C@H]1OC(=O)[C@H](C)[C@@H](O[C@H]2C[C@@](C)(OC)[C@@H](O)[C@H](C)O2)[C@H](C)[C@@H](O[C@@H]2O[C@H](C)C[C@H](N(CC3CC3)CC3CC3)[C@H]2O)[C@](C)(OC)C[C@@H](C)C(=O)[C@H](C)[C@H]2N(CCc3ccc(Cl)c(Cl)c3)C(=O)O[C@]12C [Example 1]	18.6
CC[C@H]1OC(=O)[C@H](C)[C@@H](O[C@H]2C[C@@](C)(OC)[C@@H](O)[C@H](C)O2)[C@H](C)[C@@H](O[C@@H]2O[C@H](C)C[C@H](N(CC3CC3)CC3CC3)[C@H]2O)[C@](C)(OC)C[C@@H](C)C(=O)[C@H](C)[C@H]2N(CCc3ccc(F)cc3)C(=O)O[C@]12C [Example 11, 3',3'-N-Bisdesmethyl-3',3'-N-biscyclopropylmethyl-11-deoxy-11-[carboxy-(4-fluorophenethylamino)]-6-O-methyl-erthromycin A 11,12-(cyclic carbamate)]	2.19
CC[C@H]1OC(=O)[C@H](C)[C@@H](O[C@H]2C[C@@](C)(OC)[C@@H](O)[C@H](C)O2)[C@H](C)[C@@H](O[C@@H]2O[C@H](C)C[C@H](N(CC3CC3)CC3CC3)[C@H]2O)[C@](C)(OC)C[C@@H](C)C(=O)[C@H](C)[C@H]2N(CCc3ccc(F)c(Cl)c3)C(=O)O[C@]12C [Example 15, 3',3'-N-Bisdesmethyl-3',3'-N-biscyclopropylmethyl-11-deoxy-11-[carboxy-(3-chloro-4-fluorophenetlamino)]-6-O-methyl-erythromycin A 11,12-(cyclic carbamate)]	1.26

The remaining lines, values ahead:

Ki [nM]	Molecule
1.91	CC[C@H]1OC(=O)[C@H](C)[C@@H](O[C@H]2C[C@@](C)(OC)[C@@H](O)[C@H](C)O2)[C@H](C)[C@@H](O[C@@H]2O[C@H](C)C[C@H](N(CCCc3ccncc3)CC3CC3)[C@H]2O)[C@](C)(OC)C[C@@H](C)C(=O)[C@H](C)[C@H]2N(CCc3ccc(Cl)c(Cl)c3)C(=O)O[C@]12C [Example 22, 3',3'-N-Bisdesmethyl-3'-N-cyclopropylmethyl-3'-N-[3-(4-pyridyl)propyl]-11-deoxy-11-[carboxy-(3,4-dichlorophenethylamino)]-6-O-methyl-erythromycin A 11,12-(cyclic carbamate)]
8.32	CCCN(C(C)C)[C@H]1C[C@@H](C)O[C@@H](O[C@@H]2[C@@H](C)[C@H](O[C@H]3C[C@@](C)(OC)[C@@H](O)[C@H](C)O3)[C@@H](C)C(=O)O[C@H](CC)[C@@]3(C)OC(=O)N(CCc4ccc(Cl)cc4)[C@@H]3[C@@H](C)C(=O)[C@H](C)C[C@@]2(C)OC)[C@@H]1O [Example 6, 3',3'-N-Bisdesmethyl-3'-N-isopropyl-3'-N-propyl-11-deoxy-11-[carboxy-(4-chlorophenethylamino)]-6-O-methyl-erythromycin A 11,12-(cyclic carbamate)]
3.98	CC[C@H]1OC(=O)[C@H](C)[C@@H](O[C@H]2C[C@@](C)(OC)[C@@H](O)[C@H](C)O2)[C@H](C)[C@@H](O[C@@H]2O[C@H](C)C[C@H](N(CCCc3ccccn3)CCCc3ccccn3)[C@H]2O)[C@](C)(OC)C[C@@H](C)C(=O)[C@H](C)[C@H]2N(CCc3ccc(Cl)c(Cl)c3)C(=O)O[C@]12C [Example 20, 3',3'-N-Bisdesmethyl-3',3'-N-bis-[3-(2-pyridyl)-propyl]-11-deoxy-11-[carboxy-(3,4-dichlorophenethylamino)]-6-O-methyl-erythromycin A 11,12-(cyclic carbamate)]
2.51	CC[C@H]1OC(=O)[C@H](C)[C@@H](O[C@H]2C[C@@](C)(OC)[C@@H](O)[C@H](C)O2)[C@H](C)[C@@H](O[C@@H]2O[C@H](C)C[C@H](N(CC)C(C)C)[C@H]2O)[C@](C)(OC)C[C@@H](C)C(=O)[C@H](C)[C@H]2N(CCc3ccc(Cl)cc3)C(=O)O[C@]12C [Example 8, 3',3'-N-Bisdesmethyl-3'-N-ethyl-3'-N-isopropyl-11-deoxy-11-[carboxy-(4-chlorophenethylamino)]-6-O-methyl-erythromycin A 11,12-(cyclic carbamate)]
6.31	CC[C@H]1OC(=O)[C@H](C)[C@@H](O[C@H]2C[C@@](C)(OC)[C@@H](O)[C@H](C)O2)[C@H](C)[C@@H](O[C@@H]2O[C@H](C)C[C@H](N(CC3CCC3)CC3CC3)[C@H]2O)[C@](C)(OC)C[C@@H](C)C(=O)[C@H](C)[C@H]2N(CCc3ccc(Cl)cc3)C(=O)O[C@]12C [Example 9, 3',3'-N-Bisdesmethyl-3'-N-cyclobutylmethyl-3'-N-cyclopropylmethyl-11-deoxy-11-[carboxy-(4-chlorophenethylamino)]-6-methyl-erythromycin A 11,12-(cycliccarbamate)]
4.17	CC[C@H]1OC(=O)[C@H](C)[C@@H](O[C@H]2C[C@@](C)(OC)[C@@H](O)[C@H](C)O2)[C@H](C)[C@@H](O[C@@H]2O[C@H](C)C[C@H](N(CC3CC3)CC3CC3)[C@H]2O)[C@](C)(OC)C[C@@H](C)C(=O)[C@H](C)[C@H]2N(CCc3ccc(Cl)cc3)C(=O)O[C@]12C [Example 3, 3',3'-N-Bisdesmethyl-3',3'-N-biscyclolpropylmethyl-11-deoxy-11-[carboxy-(4-chlorophenetlylamino)]-6-methyl-eryromycin A 11,12-(cyclic carbamate)]
